Where two headings read alike, the source gives them in different places.
How the values were obtained:
hLiMTs [1] = settings: cited from earlier work
[2] = read-out: Human plasma Cmax; total plasma Cmax.tot, median of 9 literature references; cited from earlier work
hLiMTs [3] = assay: Combined HCI (HCS) and cellular ATP 3D assay in hLiMTs; settings: for AC50 / minimal effective concentration: Homo sapiens; for DILI prediction hLiMTs (HCS-MEC): Microtissue model structural based (HCI), combined HCS and ATP, MEC < 25 × Cmax.tot cut-off; for hLiMTs <25x Avg Cmax ATP / hLiMTs <100x Avg Cmaxu ATP: ATP endpoint; for hLiMTs <25x Avg Cmax ATP / hLiMTs <25x Avg Cmax HCS / hLiMTs <25x Avg Cmax All: cut-off <25x Avg Cmax; for hLiMTs <100x Avg Cmaxu ATP / hLiMTs <100x Avg Cmaxu HCS / hLiMTs <100x Avg Cmaxu All: cut-off <100x Avg Cmaxu; for hLiMTs <25x Avg Cmax HCS / hLiMTs <100x Avg Cmaxu HCS: HCS endpoints; for hLiMTs <25x Avg Cmax All: all endpoints (ATP and HCS); for hLiMTs Cmax max All / hLiMTs Cmax min All / hLiMTs <10 uM All / hLiMTs <100x Avg Cmaxu All: all endpoints; for hLiMTs Cmax max All: Cmax max used; for hLiMTs Cmax min All: Cmax min used; for hLiMTs <10 uM All: cut-off <10 uM
HepaRG spheroids = assay: Combined HCI (HCS) and cellular ATP 3D assay in HepaRG spheroids; settings: for HepaRG <25x Avg Cmax ATP / HepaRG <100x Avg Cmaxu ATP: ATP endpoint; for HepaRG <25x Avg Cmax ATP / HepaRG <25x Avg Cmax HCS / HepaRG <25x Avg Cmax All: cut-off <25x Avg Cmax; for HepaRG <100x Avg Cmaxu ATP / HepaRG <100x Avg Cmaxu HCS / HepaRG <100x Avg Cmaxu All: cut-off <100x Avg Cmaxu; for HepaRG <25x Avg Cmax HCS / HepaRG <100x Avg Cmaxu HCS: HCS endpoints; for HepaRG <25x Avg Cmax All: all endpoints (ATP and HCS); for HepaRG Cmax max All / HepaRG Cmax min All / HepaRG <10 uM All / HepaRG <100x Avg Cmaxu All: all endpoints; for HepaRG Cmax max All: Cmax max used; for HepaRG Cmax min All: Cmax min used; for HepaRG <10 uM All: cut-off <10 uM; for AC50 / minimal effective concentration: Homo sapiens; for HepaRG <25x Avg Cmax ATP / HepaRG <100x Avg Cmaxu ATP / HepaRG <25x Avg Cmax HCS / HepaRG <100x Avg Cmaxu HCS / HepaRG <25x Avg Cmax All / HepaRG Cmax max All / HepaRG Cmax min All / HepaRG <10 uM All / HepaRG <100x Avg Cmaxu All / AC50 / minimal effective concentration: HepaRG; for DILI prediction HepaRG spheroids (HCS-MEC): Microtissue model structural based (HCI), combined HCS and ATP, MEC < 25 × Cmax.tot cut-off
PHH = settings: cited from earlier work
[4] = Plasma free fraction (fu) and unbound Cmax (Cmax,u); type: in vitro ADME, human; settings: unbound plasma Cmax
Method: The prediction of DILI severity was evaluated further using the 3D combined HCI assays using plasma-free fraction. The majority of fu values were obtained from literature, when unavailable in-house prediction was utilised. Unbound plasma Cmax concentrations (Cmax,u) were derived by multiplying total plasma Cmax with the corresponding free fraction (fu) for each compound.

[5] = test system: primary human hepatocytes, NIH3T3 fibroblasts, BSEP, CYP3A4; settings: cited from earlier work
[6] = cited from earlier work
[7] = test system: THLE or HepG2 cells, isolated mitochondria, BSEP; settings: cited from earlier work; for Partition Hybrid HRM Score / Ro2 Hybrid HRM Score: In vitro Assay, ref Aleo 2019; for Partition Hybrid HRM Score ≥4, Aleo (2019) / Partition Hybrid HRM Score ≥8, Aleo (2019) / Rule of Two hybrid HRM Score ≥3, Aleo (2019) / Rule of Two hybrid HRM Score ≥8, Aleo (2019): Modeled in vitro assays (cytotoxicity, mitochondrial dysfunction, BSEP), ref Aleo et al. 2019
[8] = test system: HepG2 C3A spheroid, BSEP, Glu/Gal in HepG2 cells, bioactivation; settings: cited from earlier work; for Bayesian Machine Learning: In vitro Assay, ref Williams 2019
[9] = cited from earlier work; remark: listed apart in the source
[10] = plasma free fraction; cited from earlier work
[11] = In vitro Assay, ref Proctor 2017
[12] = In vitro Assay, ref Schadt 2015

Structure (SMILES): CCN(CC)C(=O)/C(C#N)=C/c1cc(O)c(O)c([N+](=O)[O-])c1 [entacapone]
- hLiMTs ATP <100uM (hLiMTs [1]; [11]): -VE
- hLiMTs/100xCmax, Proctor (2017) (hLiMTs [1]; hLiMTs, ATP, IC50 < 100 × Cmax.tot, ref Proctor et al. 2017): +VE (IC50 < 100 × Cmax.tot)
- hLiMTs/100uM, Proctor (2017) (hLiMTs [1]; hLiMTs, ATP, IC50 threshold 100 µM, ref Proctor et al. 2017): -VE
- Cmax [2]: 3590 nM
- AC50 (hLiMTs [3]; read-out: ATP endpoint AC50): 150 µM
- minimal effective concentration (hLiMTs [3]; read-out: ATP endpoint MEC): 125 µM
- AC50 (hLiMTs [3]; read-out: HCS endpoint AC50): 139 µM
- minimal effective concentration (hLiMTs [3]; read-out: HCS endpoint MEC): 88.8 µM
- DILI prediction hLiMTs (HCS-MEC) (hLiMTs [3]): +VE (MEC < 25 × Cmax.tot cut-off)
- hLiMTs <25x Avg Cmax ATP (hLiMTs [3]): -ve
- hLiMTs <100x Avg Cmaxu ATP (hLiMTs [3]): -ve
- hLiMTs <25x Avg Cmax HCS (hLiMTs [3]): +ve
- hLiMTs <100x Avg Cmaxu HCS (hLiMTs [3]): -ve
- hLiMTs <25x Avg Cmax All (hLiMTs [3]): +ve
- hLiMTs Cmax max All (hLiMTs [3]): +ve
- hLiMTs Cmax min All (hLiMTs [3]): -ve
- hLiMTs <10 uM All (hLiMTs [3]): -ve
- hLiMTs <100x Avg Cmaxu All (hLiMTs [3]): -ve
- HepaRG <25x Avg Cmax ATP (HepaRG spheroids): +ve
- HepaRG <100x Avg Cmaxu ATP (HepaRG spheroids): -ve
- HepaRG <25x Avg Cmax HCS (HepaRG spheroids): +ve
- HepaRG <100x Avg Cmaxu HCS (HepaRG spheroids): -ve
- HepaRG <25x Avg Cmax All (HepaRG spheroids): +ve
- HepaRG Cmax max All (HepaRG spheroids): +ve
- HepaRG Cmax min All (HepaRG spheroids): +ve
- HepaRG <10 uM All (HepaRG spheroids): -ve
- HepaRG <100x Avg Cmaxu All (HepaRG spheroids): -ve
- AC50 (HepaRG spheroids; read-out: ATP endpoint AC50): 115 µM
- minimal effective concentration (HepaRG spheroids; read-out: ATP endpoint MEC): 45.5 µM
- AC50 (HepaRG spheroids; read-out: HCS endpoint AC50): 129 µM
- minimal effective concentration (HepaRG spheroids; read-out: HCS endpoint MEC): 45.4 µM
- DILI prediction HepaRG spheroids (HCS-MEC) (HepaRG spheroids): +VE (MEC < 25 × Cmax.tot cut-off)
- PHH/100xCmax, Proctor (2017) (PHH; 2D PHH, ATP, IC50 < 100 × Cmax.tot, ref Proctor et al. 2017): +VE (IC50 < 100 × Cmax.tot)
- PHH/100uM, Proctor (2017) (PHH; 2D PHH, ATP, IC50 threshold 100 µM, ref Proctor et al. 2017): -VE
- PHH ATP <100uM (PHH; [11]): +VE (IC50 threshold of 100 µM)
- Human plasma Cmax,u [4]: 72 nM
- DILI in vitro assay prediction, Schadt (2015) ([5]; BSEP & Metabolism based, ref Schadt et al. 2015): -VE
- Cellular toxicity (3T3 cells) [5, 12]: -VE
- Combined Assay [5, 12]: -VE
- GSH adduct HML [5, 12]: -VE
- Hepatocyte cellular toxicity [5, 12]: -VE
- MitoTox 3T3 [5, 12]: -VE
- TDI CYP3A4 [5, 12]: -VE
- hBSEP inhibition [5, 12]: -VE
- Assigned DILI category ([6]; Chen et al. 2016 or literature alignment, ref Chen et al. 2016): 2
- In vivo DILI ([6]; ref Aleo 2019): +VE
- In vivo DILI ([6]; ref Proctor 2017): -VE
- In vivo DILI ([6]; ref Schadt 2015): -VE
- In vivo DILI ([6]; ref Williams 2019): -VE
- Partition Hybrid HRM Score [7]: +VE
- Ro2 Hybrid HRM Score [7]: +VE
- Partition Hybrid HRM Score ≥4, Aleo (2019) [7]: +VE (Partition Hybrid HRM Score ≥4)
- Partition Hybrid HRM Score ≥8, Aleo (2019) [7]: +VE (Partition Hybrid HRM Score ≥8)
- Rule of Two hybrid HRM Score ≥3, Aleo (2019) [7]: +VE (Rule of Two hybrid HRM Score ≥3)
- Rule of Two hybrid HRM Score ≥8, Aleo (2019) [7]: -VE
- Bayesian Machine Learning DILI prediction, Williams (2019) ([8]; Bayesian modeling, ref Williams et al. 2019): -VE
- Bayesian Machine Learning [8]: -VE
- DILI severity category (Chen et al. [2016]) ([9]; LTKB DILIrank category, ref Chen et al. 2016): Less
- DILI severity category (Chen 2016) ([9]; human DILI classification, LTKB DILIrank, ref Chen et al. 2016): Less
- DILI severity category ([9]; human DILI severity, ref Chen et al.): Less
- DILI +VE (5-8), DILI -VE (-4) ([9]; ref Chen 2016): +VE
- DILI severity category ([9]; ref Chen 2016): vLess-DILI-Concern
- fu [10]: 0.020

Structure (SMILES): N[C@@H](Cc1cc(I)c(Oc2ccc(O)c(I)c2)c(I)c1)C(=O)O [liothyronine]
- Cmax [2]: 2 nM
- DILI prediction hLiMTs (HCS-MEC) (hLiMTs [3]): -VE
- hLiMTs <25x Avg Cmax ATP (hLiMTs [3]): -ve
- hLiMTs <100x Avg Cmaxu ATP (hLiMTs [3]): -ve
- hLiMTs <25x Avg Cmax HCS (hLiMTs [3]): -ve
- hLiMTs <100x Avg Cmaxu HCS (hLiMTs [3]): -ve
- hLiMTs <25x Avg Cmax All (hLiMTs [3]): -ve
- hLiMTs Cmax max All (hLiMTs [3]): -ve
- hLiMTs Cmax min All (hLiMTs [3]): -ve
- hLiMTs <10 uM All (hLiMTs [3]): -ve
- hLiMTs <100x Avg Cmaxu All (hLiMTs [3]): -ve
- HepaRG <25x Avg Cmax ATP (HepaRG spheroids): -ve
- HepaRG <100x Avg Cmaxu ATP (HepaRG spheroids): -ve
- HepaRG <25x Avg Cmax HCS (HepaRG spheroids): -ve
- HepaRG <100x Avg Cmaxu HCS (HepaRG spheroids): -ve
- HepaRG <25x Avg Cmax All (HepaRG spheroids): -ve
- HepaRG Cmax max All (HepaRG spheroids): -ve
- HepaRG Cmax min All (HepaRG spheroids): -ve
- HepaRG <10 uM All (HepaRG spheroids): +ve (<10 uM)
- HepaRG <100x Avg Cmaxu All (HepaRG spheroids): -ve
- AC50 (HepaRG spheroids; read-out: ATP endpoint AC50): 30.5 µM
- minimal effective concentration (HepaRG spheroids; read-out: ATP endpoint MEC): 11.5 µM
- AC50 (HepaRG spheroids; read-out: HCS endpoint AC50): 82.8 µM
- minimal effective concentration (HepaRG spheroids; read-out: HCS endpoint MEC): 4.14 µM
- DILI prediction HepaRG spheroids (HCS-MEC) (HepaRG spheroids): -VE
- Human plasma Cmax,u [4]: 0.05 nM
- Partition Hybrid HRM Score [7]: -VE
- Ro2 Hybrid HRM Score [7]: -VE
- Partition Hybrid HRM Score ≥4, Aleo (2019) [7]: -VE
- Partition Hybrid HRM Score ≥8, Aleo (2019) [7]: -VE
- Rule of Two hybrid HRM Score ≥3, Aleo (2019) [7]: -VE
- Rule of Two hybrid HRM Score ≥8, Aleo (2019) [7]: -VE
- Bayesian Machine Learning [8]: -VE
- fu [10]: 0.020
